Test results published in the NIST ThermoML archive (doi:10.1016/j.fluid.2005.12.004).
± gives the expanded uncertainty stated by the source.

Settings: Liquid, Closed cell (Static) method

Compound: FC(F)(F)C(F)(F)F [hexafluoroethane]
- vapor or sublimation pressure (189.31 K): 73.9 ± 4 kPa
- vapor or sublimation pressure (192.63 K): 88.5 ± 4 kPa
- vapor or sublimation pressure (247.63 K): 883 ± 4.8 kPa
- vapor or sublimation pressure (252.8 K): 1038.2 ± 5 kPa
